This is an account of results in patent US20130030012A1, “COMPOUNDS” (Glaxo Group Limited, priority 2011, published 2013).

Structures can show the parent of a compound that is named as a salt. Where two headings read alike, the source gives them in different places.

Assay [1] addresses T1, Lp-PLA2 in human plasma (Homo sapiens, UniProt Q13093).
T1 construct: from tissue; host or cells: pooled human plasma
T1 sequence (Q13093 22-441): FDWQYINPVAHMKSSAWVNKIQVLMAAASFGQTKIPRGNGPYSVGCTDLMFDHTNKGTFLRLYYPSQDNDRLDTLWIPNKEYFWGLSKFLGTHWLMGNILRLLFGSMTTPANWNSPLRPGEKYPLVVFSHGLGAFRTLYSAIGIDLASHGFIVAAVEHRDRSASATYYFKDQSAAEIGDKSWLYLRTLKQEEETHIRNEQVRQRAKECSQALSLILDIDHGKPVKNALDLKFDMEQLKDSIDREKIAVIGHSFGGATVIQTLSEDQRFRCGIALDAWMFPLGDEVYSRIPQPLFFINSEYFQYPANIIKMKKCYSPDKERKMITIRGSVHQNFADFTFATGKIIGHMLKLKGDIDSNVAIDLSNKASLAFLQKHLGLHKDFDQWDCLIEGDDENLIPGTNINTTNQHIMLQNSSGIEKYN
In words: Lp-PLA2 human plasma assay (Thio-PAF assay). Type of assay: biochemical. The note with it: pooled human plasma; read-out: pIC50 values in the thio-PAF assay (converted). An excerpt: The human plasma assay utilizes a thioester analog of PAF (phosphatidylcholine), where hydrolysis yields to the formation of a phospholipid containing a free thiol group. The amount of thiol is quantitated continuously by reacting with CPM (7-diethylamino-3-(4′-maleimidylphenyl)-4-methylcoumarin), a maleimide which increases in fluoresence after Michael addition of thiols. This assay may detect the activity of Lp-PLA2 in human plasma, as determined by specific inhibition by Lp-PLA2 inhibitors.
The thio-PAF assay was run as a quenched 15 μL assay. Compounds source plate was prepared by making 1:3 (by volume) serial dilution of the compounds into pure DMSO on 384-well microplate. 0.01 μL of compounds on compound source plate were transferred to 384 well Greiner 784076 (black) low-volume plates by ECHO liquid dispenser. 8 μL pooled human plasma, which was previously aliquoted and frozen, was added. Plates were centrifuged for 10 sec at 500 rpm. After 30 minutes preincubation, 2 μL of substrate solution comprising 2.5 mM 2-thio-PAF [from ethanol stock], […] CPM [from a DMSO stock] and 3.2 mM NEM (N-ethylmaleimide) [made fresh daily in DMSO] in assay buffer of 50 mM HEPES, pH 7.4, 150 mM NaCl, 1 mM CHAPS was added to 384 well Greiner 784076 (black) low-volume plates by BRAVO liquid handling station. After 2 mins, reaction was quenched with 5 μL of 5% aqueous trifluoroacetic acid (TFA). Plates were covered to protect from light and incubated for 40 min at room temperature. Plates were read at ex: 380/em: 485 using—Envision microplate reader. pIC50 data, curve and QC analysis was conducted by using XLFit module in Excel.

For assay [2], the target named is T2, recombinant human Lp-PLA2 (Homo sapiens, UniProt Q13093).
T2 sequence (Q13093 22-441): T1 sequence (Q13093 22-441)
In words: Recombinant human Lp-PLA2 assay (rhLp-PLA2, PED6 assay). Type of assay: biochemical. The note with it: upper limit for pIC50 in this assay is 9.3. An excerpt:
(1) Recombinant Human Lp-PLA2 Assay (rhLp-PLA2) (Also Referred to as “PED6” Assay)
N-((6-(2,4-dinitrophenyl)amino)-hexanoyl)-2-(4,4-difluoro-5,7-dimethyl-4-bora-3a,4a-diaza-s-indacene-3-pentanoyl)-1-hexadecanoyl-sn-glycero-3-phosphoethanolamine, triethylammonium salt (PED6) is a commercially available fluorescently-labeled phospholipid, which is commercially available from Invitrogene and Molecular Probes. There is a quenching […] and a Bodipy fluorescein (FL) group in the sn2 position. Upon cleavage with Lp-PLA2, the Bodipy FL group is liberated and then may result in an increase in fluorescence. Inhibitors of Lp-PLA2 therefore prevent this cleavage and no fluorescent increase is observed.
The PED6 assay was run as an unquenched 10 μL assay. The source plate containing the compounds to be tested was prepared by making 1:3 (by volume) serial dilution of the compounds within DMSO on 384-well microplate. Then, 0.01 μL of the compounds on compound source plate were transferred into 384 well Greiner 784076 (black) plates using ECHO liquid dispenser. 5 μL of recombinant human Lp-PLA2 enzyme (4 nM (or 110 pM) rhLp-PLA2 in assay buffer of 50 mM HEPES, pH 7.4, 150 mM NaCl, 1 mM CHAPS) was added to each well of the plate. Plates were centrifuged for 10 sec at 500 rpm. After 30 minutes preincubation, 5 μL of substrate ([…] (or 5 μM) PED6 [from 5 mM DMSO stock] in assay buffer of 50 mM HEPES, pH 7.4, 150 mM NaCl, 1 mM CHAPS) was added to 384 well Greiner 784076 (black) plates. Plates were centrifuged for 10 sec at 500 rpm. The plate was covered to protect it from light and incubated for 20 min at room temperature. The plates were read for fluorescence intensity at ex: 480/em: 540 using ViewLux microplate imager for Envision spectrofluoroimeters pIC50 data, curve and QC analysis was conducted by using XL fit module in Excel.
The compounds described below were tested generally according to the PED6 assay described above.

[3] abbreviates: read-out: pIC50 values in the PED6 assay (converted).
Setting [4] is: Table 1, read-out: rhLp-PLA2 (PED6 assay) (pIC50) (converted).

On to `CN1CCCn2c1cc(OCc1ccc(Oc3cccc(C(F)(F)F)c3)c(C#N)c1)nc2=O` [Example 1, 5-(((1-methyl-6-oxo-2,3,4,6-tetrahydro-1H-pyrimido[1,6-a]pyrimidin-8-yl)oxy)methyl)-2-(3-(trifluoromethyl)phenoxy)benzonitrile], for which the IC50 in assay [1] was ≤ 100 nM; in assay [2] (setting [3]) it was ≤ 10 nM.

With `CN1CCCn2c1cc(OCc1ccc(Oc3ccc(C(F)(F)F)cn3)c(C#N)c1)nc2=O` [Example 2, 5-(((1-methyl-6-oxo-2,3,4,6-tetrahydro-1H-pyrimido[1,6-a]pyrimidin-8-yl)oxy)methyl)-2-((5-(trifluoromethyl)pyridin-2-yl)oxy)benzonitrile], the IC50 in assay [1] was ≤ 100 nM; in assay [2] (setting [4]), 2.51 nM; in assay [2] (setting [3]) it was ≤ 10 nM.

On to `CN1CCCn2c1cc(OCc1cc(F)c(Oc3ccc(C(F)(F)F)nc3)c(F)c1)nc2=O` [Example 3, 8-((3,5-difluoro-4-((6-(trifluoromethyl)pyridin-3-yl)oxy)benzyl)oxy)-1-methyl-3,4-dihydro-1H-pyrimido[1,6-a]pyrimidin-6(2H)-one], for which the results for the IC50 in assay [1], in assay [2] (setting [4]) and in assay [2] (setting [3]) were ≤ 100 nM, 1 nM and ≤ 1 nM, respectively.

Regarding `CN1CCCn2c1cc(OCc1ccc(Oc3ccc(C(F)(F)F)nc3)c(F)c1)nc2=O` [Example 4, 8-((3-fluoro-4-((6-(trifluoromethyl)pyridin-3-yl)oxy)benzyl)oxy)-1-methyl-3,4-dihydro-1H-pyrimido[1,6-a]pyrimidin-6(2H)-one], the results for the IC50 in assay [1] and in assay [2] (setting [3]) were ≤ 100 nM and ≤ 10 nM, respectively.

Regarding `CN1CCCn2c1cc(OCc1ccc(Oc3ccc(F)c(F)c3)c(F)c1)nc2=O` [Example 5, 8-((4-(3,4-difluorophenoxy)-3-fluorobenzyl)oxy)-1-methyl-3,4-dihydro-1H-pyrimido[1,6-a]pyrimidin-6(2H)-one], the IC50 was ≤ 100 nM in assay [1] and ≤ 10 nM in assay [2] (setting [3]).

Consider `CN1CCCn2c1cc(OCc1ccc(Oc3ccc(Cl)c(C(F)(F)F)c3)cc1)nc2=O` [Example 6, 8-((4-(4-chloro-3-(trifluoromethyl)phenoxy)benzyl)oxy)-1-methyl-3,4-dihydro-1H-pyrimido[1,6-a]pyrimidin-6(2H)-one], for which the IC50 was ≤ 1000 nM in assay [1] and ≤ 10 nM in assay [2] (setting [3]).

`CN1CCCn2c1cc(OCc1ccc(Oc3ccc(Cl)c(Cl)c3)cc1)nc2=O` [Example 7, 8-((4-(3,4-dichlorophenoxy)benzyl)oxy)-1-methyl-3,4-dihydro-1H-pyrimido[1,6-a]pyrimidin-6(2H)-one]: the IC50 was ≤ 100 nM in assay [1], 0.794 nM in assay [2] (setting [4]) and ≤ 1 nM in assay [2] (setting [3]).

For the compound `CN1CCCn2c1cc(OCc1ccc(F)cc1)nc2=O` [Example 8, 8-((4-fluorobenzyl)oxy)-1-methyl-3,4-dihydro-1H-pyrimido[1,6-a]pyrimidin-6(2H)-one], the IC50 in assay [1] was ≤ 1000 nM.

With `CN1CCCn2c1cc(NCCc1ccc(Oc3ccc(Cl)c(C(F)(F)F)c3)cc1)nc2=O` [Example 9, 8-((4-(4-chloro-3-(trifluoromethyl)phenoxy)phenethyl)amino)-1-methyl-3,4-dihydro-1H-pyrimido[1,6-a]pyrimidin-6(2H)-one, trifluoroacetic acid salt], the IC50 in assay [1] was ≤ 1000 nM.

Consider `CN1CCCn2c1cc(OCc1cccc(F)c1F)nc2=O` [Example 12, 8-((2,3-difluorobenzyl)oxy)-1-methyl-3,4-dihydro-1H-pyrimido[1,6-a]pyrimidin-6(2H)-one], for which, in assay [1], the IC50 is ≤ 1000 nM.

With `CN1CCCn2c1cc(OCc1ccc(Oc3ccc(F)c(F)c3)cc1)nc2=O` [Example 14, 8-((4-(3,4-difluorophenoxy)benzyl)oxy)-1-methyl-3,4-dihydro-1H-pyrimido[1,6-a]pyrimidin-6(2H)-one], the IC50 in assay [2] (setting [3]) is ≤ 10 nM.

In the case of `CN1CCCn2c1cc(OCc1ccc(F)cc1F)nc2=O` [Example 20, 8-((2,4-difluorobenzyl)oxy)-1-methyl-3,4-dihydro-1H-pyrimido[1,6-a]pyrimidin-6(2H)-one], the IC50 in assay [1] was ≤ 1000 nM.

Turning to `CN1CCCn2c1cc(OCc1cccc(C#N)c1)nc2=O` [Example 27, 3-(((1-methyl-6-oxo-2,3,4,6-tetrahydro-1H-pyrimido[1,6-a]pyrimidin-8-yl)oxy)methyl)benzonitrile], in assay [1], the IC50 is ≤ 100 nM.

In the case of `CN1CCCn2c1cc(OCc1cc(F)cc(F)c1)nc2=O` [Example 31, 8-((3,5-difluorobenzyl)oxy)-1-methyl-3,4-dihydro-1H-pyrimido[1,6-a]pyrimidin-6(2H)-one], the IC50 in assay [1] was ≤ 1000 nM.

With `CN1CCCn2c1cc(OCc1cc(F)cc(C#N)c1)nc2=O` [Example 33, 3-fluoro-5-(((1-methyl-6-oxo-2,3,4,6-tetrahydro-1H-pyrimido[1,6-a]pyrimidin-8-yl)oxy)methyl)benzonitrile], the IC50 in assay [1] was ≤ 100 nM.

With `CN1CCCn2c1cc(OCc1cccc(F)c1)nc2=O` [Example 37, 8-((3-fluorobenzyl)oxy)-1-methyl-3,4-dihydro-1H-pyrimido[1,6-a]pyrimidin-6(2H)-one], the IC50 in assay [1] was ≤ 100 nM.

Regarding `CN1CCCn2c1cc(SCc1ccc(F)cc1)nc2=O` [Example 66, 8-(4-Fluoro-benzylsulfanyl)-1-methyl-1,2,3,4-tetrahydro-pyrimido[1,6-a]pyrimidin-6-one], in assay [1], the IC50 is ≤ 1000 nM.

On to `CN1CCCn2c1cc(OCc1ccc(Oc3cncnc3)c(C#N)c1)nc2=O` [Example 86, 5-(((1-methyl-6-oxo-2,3,4,6-tetrahydro-1H-pyrimido[1,6-a]pyrimidin-8-yl)oxy)methyl)-2-(pyrimidin-5-yloxy)benzonitrile], for which the IC50 in assay [1] is ≤ 1000 nM.

Consider `Cc1ccc(Oc2ccc(COc3cc4n(c(=O)n3)CCCN4)cc2)cc1F` [Example 108, 8-((4-(3-fluoro-4-methylphenoxy)benzyl)oxy)-3,4-dihydro-1H-pyrimido[1,6-a]pyrimidin-6(2H)-one], for which the IC50 in assay [2] (setting [3]) was ≤ 10 nM.

Consider `CN1CCCn2c1cc(OCCc1ccc(Oc3ccc(F)c(F)c3)cc1)nc2=O` [Example 110, 8-(4-(3,4-difluorophenoxy)phenethoxy)-1-methyl-3,4-dihydro-1H-pyrimido[1,6-a]pyrimidin-6(2H)-one], for which, in assay [2] (setting [3]), the IC50 is ≤ 10 nM.

Take `O=c1nc(OCCc2ccc(F)c(F)c2)cc2n1CCCN2` [Example 111, 8-(3,4-difluorophenethoxy)-3,4-dihydro-1H-pyrimido[1,6-a]pyrimidin-6(2H)-one]: the IC50 in assay [1] was ≤ 1000 nM.

For the compound `O=c1nc(OCCc2ccc(Cl)c(Cl)c2)cc2n1CCCN2` [Example 112, 8-(3,4-dichlorophenethoxy)-3,4-dihydro-1H-pyrimido[1,6-a]pyrimidin-6(2H)-one], in assay [1], the IC50 was ≤ 100 nM.
